The values that follow come from ChEMBL document CHEMBL1201862, “PubChem BioAssay data set” (2004).

Structures are written as SMILES.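 Values below derive from 48-hour exposures of cells grown in 96-well plates, with endpoints linearly interpolated between the two concentrations bracketing the appropriate inhibition level. GI50: concentration for 50% inhibition of growth.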 The source made the active and inactive calls. Rule as the data show it: active = GI50 up to about 1.1 µM and inactive = higher. A value given as a limit tells only on which side of the number the result lay.

Some test systems named below: OVCAR-8; EKVX; CCRF-CEM; 786-0; UO-31; HL-60; SK-MEL-28; MDA-N; HT-29; ACHN; IGROV-1; NCI-H23; SF-268; UACC-257; DU-145; NCI-H226; MDA-MB-231; SF-539; NCI-H522.
Holding throughout (test): growth of human tumour cells (NCI), 48 h

Regarding `O=C1CC(C(OCc2ccccc2)C(OCc2ccccc2)C(OCc2ccccc2)C(COCc2ccccc2)OCc2ccccc2)CC(=O)N1` (stereo not given), the GI50 in the assay with OVCAR-8 is > 100 µM (inactive); with EKVX it was > 100 µM (inactive); with CCRF-CEM, > 100 µM (inactive); in the assay with 786-0 it was > 100 µM (inactive); in the assay with UO-31 it was 60.1 µM (inactive); in the assay with HL-60 it was > 100 µM (inactive). For the same compound, the GI50 in the assay with SK-MEL-28, in the assay on MDA-N, in the assay on HT-29, with ACHN, in the assay with IGROV-1 and in the assay on NCI-H23 was > 100 µM (inactive) throughout. Moreover, the GI50 in the assay with SF-268, with UACC-257 and in the assay on DU-145 was > 100 µM (inactive) each time.

For `NC1(c2cc3ccccc3s2)CCCCCC1`, the GI50 was 17.3 µM (inactive) with OVCAR-8; 18.7 µM (inactive) in the assay on EKVX; 19.8 µM (inactive) with NCI-H226; 16 µM (inactive) with CCRF-CEM; 15.7 µM (inactive) in the assay on MDA-MB-231; 15.5 µM (inactive) with 786-0. For the same compound, the GI50 is 14.4 µM (inactive) with UO-31; 14.8 µM (inactive) in the assay on HL-60; 16.7 µM (inactive) in the assay with SK-MEL-28; 16.6 µM (inactive) in the assay with MDA-N; 14.2 µM (inactive) with HT-29; 19.3 µM (inactive) in the assay with ACHN. Besides, the GI50 is 14.7 µM (inactive) in the assay on IGROV-1; 17.3 µM (inactive) with NCI-H23; 16.3 µM (inactive) in the assay with UACC-257; 17.2 µM (inactive) in the assay on DU-145; 18 µM (inactive) in the assay with SF-539.

On to `COC(=O)NN1C(C)=C(C(=O)OC)C2(CCOC2=O)C1(C)O` (stereo not given), for which the GI50 in the assay on OVCAR-8, with NCI-H522, in the assay on EKVX, in the assay on NCI-H226, in the assay on CCRF-CEM and in the assay on 786-0 was > 100 µM (inactive) in each case. The GI50 with UO-31, with HL-60, in the assay with SK-MEL-28, in the assay on HT-29, in the assay on ACHN and with IGROV-1 was > 100 µM (inactive) each time. Also, the GI50 in the assay on NCI-H23, in the assay on SF-268, with UACC-257 and in the assay with SF-539 was > 100 µM (inactive) throughout.

`CC(C)(CN1CCCCC1)C(=O)/C=C/c1ccc(Cl)c(Cl)c1`: the GI50 with OVCAR-8 was > 100 µM (inactive); in the assay on NCI-H522, 1.21 µM (inactive); in the assay on EKVX it was 1.76 µM (inactive); in the assay with NCI-H226 it was 1.71 µM (inactive); in the assay with CCRF-CEM it was 1.09 µM (active); in the assay with 786-0, 1.38 µM (inactive). Further, the GI50 in the assay with UO-31 is 1.63 µM (inactive); in the assay on HL-60, 1.53 µM (inactive); with SK-MEL-28, 1.86 µM (inactive); with HT-29, 1.61 µM (inactive); with ACHN, 1.55 µM (inactive); in the assay with IGROV-1 it was 2 µM (inactive). Further, the GI50 with NCI-H23 is 1.71 µM (inactive); with SF-268, 1.8 µM (inactive); with UACC-257, 1.18 µM (inactive); with SF-539 it was 2.07 µM (inactive).

For `O=C(Cn1cc(I)c(C(=O)NCC(O)CO)n1)NCC(O)CO` (stereo not given), the GI50 with OVCAR-8, in the assay with NCI-H522, with EKVX, in the assay on NCI-H226, in the assay with CCRF-CEM and in the assay with 786-0 was > 100 µM (inactive) throughout. Besides, the GI50 in the assay with UO-31, in the assay on HL-60, in the assay on SK-MEL-28, with HT-29, in the assay with ACHN and in the assay on IGROV-1 was > 100 µM (inactive) in each case. The GI50 in the assay on NCI-H23, in the assay with SF-268, in the assay with UACC-257 and in the assay with SF-539 was > 100 µM (inactive) throughout.

For the compound `Cc1ccc(NC(=O)CC2SC(Nc3ccc(Cl)cc3)=NC2=O)cc1C` (stereo not given), the GI50 is 18 µM (inactive) in the assay with OVCAR-8; 7.85 µM (inactive) in the assay on NCI-H522; 17.5 µM (inactive) with EKVX; > 47.2 µM (inactive) with NCI-H226; 3.24 µM (inactive) in the assay with CCRF-CEM; 17.8 µM (inactive) in the assay on 786-0. Also, the GI50 in the assay on UO-31 was 18.6 µM (inactive); in the assay on HL-60, 3.12 µM (inactive); in the assay on SK-MEL-28 it was 19.5 µM (inactive); in the assay on HT-29 it was 18.2 µM (inactive); in the assay on ACHN, 16.1 µM (inactive); in the assay with IGROV-1, > 46.3 µM (inactive). Also, the GI50 is 19 µM (inactive) in the assay with NCI-H23, 18.3 µM (inactive) with SF-268, 15.9 µM (inactive) in the assay on UACC-257 and 20.8 µM (inactive) in the assay on SF-539.

Regarding `O=C(/C=C\c1cccc2ccccc12)c1ccc(F)cc1`, the GI50 was 14.8 µM (inactive) in the assay on OVCAR-8; 20.5 µM (inactive) in the assay with NCI-H522; 18.8 µM (inactive) in the assay on EKVX; 35.9 µM (inactive) in the assay with NCI-H226; 13.6 µM (inactive) in the assay with CCRF-CEM; 18.1 µM (inactive) with 786-0. For the same compound, the GI50 with UO-31 is 16.7 µM (inactive); in the assay on HL-60, 20.6 µM (inactive); in the assay with SK-MEL-28, 13.2 µM (inactive); in the assay with HT-29, 17.3 µM (inactive); in the assay with ACHN, 17 µM (inactive); in the assay with IGROV-1 it was 15.3 µM (inactive). The GI50 in the assay on NCI-H23 is 20 µM (inactive); in the assay on SF-268, 15 µM (inactive); in the assay with UACC-257, 17.6 µM (inactive); with SF-539, 21.5 µM (inactive).

In the case of `CCCCCCCCCCCCCC(=O)CC(=O)c1c(O)cccc1O`, the GI50 was 44.3 µM (inactive) in the assay on OVCAR-8; 22.7 µM (inactive) in the assay with NCI-H522; 30.6 µM (inactive) in the assay on EKVX; 28.4 µM (inactive) in the assay on NCI-H226; 21.1 µM (inactive) with CCRF-CEM; 34.9 µM (inactive) in the assay on 786-0. Also, the GI50 in the assay on UO-31 is 32.7 µM (inactive); with HL-60, 20.8 µM (inactive); in the assay with SK-MEL-28 it was > 100 µM (inactive); in the assay on HT-29 it was 27.2 µM (inactive); in the assay with ACHN, 28.2 µM (inactive); in the assay with IGROV-1, 48 µM (inactive). The GI50 in the assay on NCI-H23 was 23 µM (inactive); in the assay on SF-268 it was 61.8 µM (inactive); in the assay on UACC-257 it was 32.4 µM (inactive); with SF-539, 49.5 µM (inactive).

Regarding `O=C1C(=C2SC(c3ccccc3)(c3ccccc3)c3ccccc32)C(=O)c2ccccc21`, the GI50 in the assay on OVCAR-8, with NCI-H522, in the assay with EKVX, with NCI-H226, in the assay with CCRF-CEM and in the assay on MDA-MB-231 was > 100 µM (inactive) throughout. Further, the GI50 with 786-0, in the assay on UO-31, with SK-MEL-28, in the assay with MDA-N, in the assay with HT-29 and in the assay on ACHN was > 100 µM (inactive) throughout. The GI50 with IGROV-1 is > 100 µM (inactive); in the assay on NCI-H23, > 100 µM (inactive); in the assay with SF-268, > 100 µM (inactive); with UACC-257, 72.4 µM (inactive); in the assay with DU-145, > 100 µM (inactive); in the assay with SF-539, > 100 µM (inactive).

Regarding `CC(C)COC(c1ccc2c(c1)OCO2)C(C)Br` (stereo not given), the GI50 in the assay with OVCAR-8 was 30.2 µM (inactive); in the assay on NCI-H522, 18.7 µM (inactive); with EKVX, 26.2 µM (inactive); in the assay on NCI-H226 it was 26.4 µM (inactive); in the assay with MDA-MB-231, 35.9 µM (inactive); with 786-0 it was 23.4 µM (inactive). The GI50 in the assay with UO-31 is 22.5 µM (inactive); in the assay with SK-MEL-28, 48.6 µM (inactive); in the assay with MDA-N, 21.6 µM (inactive); in the assay on HT-29 it was 18.9 µM (inactive); in the assay with ACHN, 34 µM (inactive); in the assay on IGROV-1, 32.8 µM (inactive). Also, the GI50 in the assay on NCI-H23 is 26.2 µM (inactive); with SF-268, 25.2 µM (inactive); with UACC-257, 23 µM (inactive); in the assay with DU-145 it was 33.1 µM (inactive); in the assay on SF-539 it was 23.3 µM (inactive).

`CC(=O)c1ccc(NC(=O)COC(=O)c2cccc3c(=O)c4ccccc4[nH]c23)cc1`: the GI50 was 9.2 µM (inactive) in the assay on OVCAR-8; 72.6 µM (inactive) in the assay on NCI-H522; > 100 µM (inactive) in the assay on EKVX; 19.4 µM (inactive) in the assay on NCI-H226; > 100 µM (inactive) in the assay with CCRF-CEM; 37.8 µM (inactive) in the assay on 786-0. Further, the GI50 was 96.2 µM (inactive) in the assay on UO-31; > 100 µM (inactive) in the assay on HL-60; 40.6 µM (inactive) in the assay with SK-MEL-28; 45.5 µM (inactive) in the assay with HT-29; 27.8 µM (inactive) in the assay on ACHN; 37.4 µM (inactive) in the assay on IGROV-1. The GI50 in the assay on NCI-H23 was 18.6 µM (inactive); in the assay on SF-268, 20.5 µM (inactive); with UACC-257, 57.7 µM (inactive); in the assay on SF-539, 8.91 µM (inactive).

For `CC(=O)OCC(OC(C)=O)C1C[C@H]2O[C@@H]3[C@H](C[C@H]2O1)O[C@@]1(C[C@@H]3C)C[C@H](C)[C@@H]2O[C@]3(C[C@@H]2O1)C[C@H]1O[C@H]2[C@H](C)[C@H]4OC(=O)CC5CC[C@H]6OC7[C@H]8O[C@]9(CC[C@H]%10CC(O)(CO)[C@H](CC[C@H]%11C[C@@H](C)C(O)(CO)C(C[C@@H]4O[C@H]2C[C@H]1O3)O%11)O%10)CC8O[C@@H]7[C@@H](O9)[C@H]6O5` (stereo not given in full), the GI50 in the assay with OVCAR-8 is 0.0121 µM (active); in the assay on NCI-H522, 0.000942 µM (active); in the assay with EKVX, 0.0234 µM (active); with NCI-H226, 0.0122 µM (active); with CCRF-CEM, 0.00944 µM (active); in the assay with MDA-MB-231, 0.0705 µM (active). For the same compound, the GI50 with 786-0 was 0.00532 µM (active); in the assay on UO-31, 0.0226 µM (active); with SK-MEL-28, 0.0303 µM (active); in the assay on MDA-N, 0.00083 µM (active); in the assay on ACHN it was 0.0479 µM (active); in the assay on IGROV-1 it was 0.00436 µM (active). Besides, the GI50 is 0.00496 µM (active) in the assay on NCI-H23, 0.00986 µM (active) in the assay on SF-268, 0.00555 µM (active) in the assay on UACC-257 and 0.00386 µM (active) in the assay with DU-145.
